# Assays:
# Format in all cases: cell-based, human
# NCIH82 cells = experiment: Cell proliferation experiment, NCI-H82; conditions: Homo sapiens, NCI-H82, NCI-H82 cells; read-out: Inhibitory activity IC50 on NCI-H82
# Outline: (§1)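 Cells were passaged at least twice, harvested in log phase and plated in 96 wells. Compound in complete medium was added at 5-fold gradient concentrations, duplicates per concentration. After 72 h culture, Alamar blue fluorescence was measured and IC50 fitted.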
# MDA-MB-231 cells = experiment: Cell proliferation experiment, MDA-MB-231; conditions: Homo sapiens, MDA-MB-231, MDA-MB-231 cells; read-out: Inhibitory activity IC50 on MDA-MB-231
# Outline: as §1
# PC-3 = experiment: Cell proliferation experiment, PC-3; conditions: Homo sapiens, PC-3, PC-3 cells; read-out: Inhibitory activity IC50 on PC-3
# Outline: as §1
# MV4;11 cells = experiment: Cell proliferation experiment (Alamar blue, 72 h), MV4;11; conditions: Homo sapiens, MV4-11, MV4;11 cells; read-out: Inhibitory activity IC50 on MV4;11
# Outline: as §1
# Daudi cells = experiment: Cell proliferation experiment, Daudi; conditions: Homo sapiens, Daudi, Daudi cells; read-out: Inhibitory activity IC50 on Daudi
# Outline: as §1
SMILES,IC50 (NCIH82 cells) [nM],IC50 (MDA-MB-231 cells) [nM],IC50 (PC-3) [nM],IC50 (MV4;11 cells) [nM],IC50 (Daudi cells) [nM]
CNC(=O)c1ccccc1Nc1nc(Nc2ccc(N3CCN(C(=O)N[C@H]4CC[C@H](NCCC#Cc5ccc6c(c5)CN(C5CCC(=O)NC5=O)C6=O)CC4)CC3)nc2)ncc1Cl (stereo partly drawn) [UB-181174],> 1000,> 1000,10 to 100,10 to 100,10 to 100
CNC(=O)c1ccccc1Nc1nc(Nc2ccc(N3CCN(C(=O)N[C@H]4CC[C@@H](N[C@H]5C[C@H](C#Cc6ccc7c(c6)CN(C6CCC(=O)NC6=O)C7=O)C5)CC4)CC3)cc2)ncc1Cl (stereo partly drawn) [UB-181181],100 to 1000,> 1000,10 to 100,10 to 100,> 1000
NC(=O)c1ccccc1Nc1nc(Nc2ccc(C3CCN(C(=O)N[C@H]4CC[C@@H](NCCC#Cc5ccc6c(c5)CN(C5CCC(=O)NC5=O)C6=O)CC4)CC3)cc2)ncc1Cl (stereo partly drawn) [UB-181182],10 to 100,100 to 1000,100 to 1000,< 10,100 to 1000
CNC(=O)c1ccccc1Nc1nc(Nc2ccc(N3CCC(C(=O)N[C@H]4CC[C@@H](NCCC#Cc5ccc6c(c5)CN(C5CCC(=O)NC5=O)C6=O)CC4)CC3)cc2)ncc1Cl (stereo partly drawn) [UB-181184],10 to 100,100 to 1000,10 to 100,< 10,10 to 100
CNC(=O)c1ccccc1Nc1nc(Nc2ccc(N3CCN(C(=O)N[C@H]4CC[C@@H](N(C)CCC#Cc5ccc6c(c5)CN(C5CCC(=O)NC5=O)C6=O)CC4)CC3)cc2)ncc1Cl (stereo partly drawn) [UB-181185],10 to 100,10 to 100,10 to 100,< 10,10 to 100
CNC(=O)c1ccccc1Nc1nc(Nc2ccc(N3CCC(C(=O)N[C@H]4CC[C@@H](NCCC#Cc5cccc6c5CN(C5CCC(=O)NC5=O)C6=O)CC4)CC3)cc2)ncc1Cl (stereo partly drawn) [UB-181186],10 to 100,100 to 1000,< 10,< 10,10 to 100
CNC(=O)c1ccccc1Nc1nc(Nc2ccc(N3CCN(C(=O)NC4CCC(NCCC#Cc5cccc6c5CN(C5CCC(=O)NC5=O)C6=O)CC4)CC3)cc2)ncc1Cl (stereo not drawn) [UB-181187],100 to 1000,> 1000,10 to 100,10 to 100,> 1000
CNC(=O)c1ccccc1Nc1nc(Nc2ccc(N3CCN(C(=O)N[C@H]4CC[C@@H](NCCC#Cc5ccc6c(c5)CN(C5CCC(=O)NC5=O)C6=O)CC4)CC3)cn2)ncc1Cl (stereo partly drawn) [UB-181188],10 to 100,> 1000,10 to 100,10 to 100,10 to 100
NC(=O)c1ccccc1Nc1nc(Nc2ccc(N3CCN(C(=O)N[C@H]4CC[C@@H](NCCC#Cc5ccc6c(c5)CN(C5CCC(=O)NC5=O)C6=O)CC4)CC3)cc2)ncc1Cl (stereo partly drawn) [UB-181189],10 to 100,10 to 100,< 10,< 10,< 10
NC(=O)c1ccccc1Nc1nc(Nc2ccc(N3CCN(C(=O)N[C@H]4CC[C@@H](NCCC#Cc5cccc6c5CN(C5CCC(=O)NC5=O)C6=O)CC4)CC3)cc2)ncc1Cl (stereo partly drawn) [UB-181190],10 to 100,10 to 100,10 to 100,< 10,10 to 100
NC(=O)c1ccccc1Nc1nc(Nc2ccc(C3CCN(C(=O)N[C@H]4CC[C@@H](NCC(O)CC#Cc5ccc6c(c5)CN(C5CCC(=O)NC5=O)C6=O)CC4)CC3)cc2)ncc1Cl (stereo partly drawn) [UB-181194],> 1000,> 1000,> 1000,< 10,> 1000
NC(=O)c1ccccc1Nc1nc(Nc2ccc(C3CCN(C(=O)N[C@H]4CC[C@@H](N[C@H]5C[C@H](C#Cc6ccc7c(c6)CN(C6CCC(=O)NC6=O)C7=O)C5)CC4)CC3)cc2)ncc1Cl (stereo partly drawn) [UB-181198],10 to 100,10 to 100,10 to 100,< 10,10 to 100
